Test results taken from PubChem BioAssay (NCI).
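48-hour exposure; five concentrations; linearly interpolated endpoints. GI50 is the concentration that inhibits growth by half. At the TGI there is no net growth.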

Experiments:
Test in all cases: DTP human tumour cell line panel, 48 h
[1] = test system: SF-295 CNS
[2] = test system: A549 NSCLC
[3] = test system: RXF 393 renal
[4] = test system: MALME-3M melanoma
[5] = test system: SR leukemia
[6] = test system: SK-MEL-5 melanoma
[7] = test system: MDA-N
[8] = test system: K-562 leukemia
[9] = test system: IGROV1 ovarian
[10] = test system: HOP-62 NSCLC
[11] = test system: NCI-H522 lung

Which TGI [1] does the source give for `Cc1c(O)ccc2c(O)c(NC(=O)c3ccc4c(c3)CCC(C)(C)O4)c(=O)oc12` here?
The TGI was greater than 100 µM.

And the TGI [2]?
Its TGI is greater than 100 µM.

And the TGI [3]?
The TGI was greater than 100 µM.

What about the TGI [4] of the same molecule?
Its TGI is greater than 100 µM.

What about the TGI [5] of the same molecule?
The TGI was greater than 100 µM.

And the TGI [6]?
Its TGI is greater than 100 µM.

And the TGI [7]?
The TGI was greater than 100 µM.

And the TGI [8]?
The TGI was greater than 100 µM.

And the TGI [9]?
The TGI was greater than 100 µM.

And the TGI [10]?
Its TGI is greater than 100 µM.

What about the TGI [11] of the same molecule?
The TGI was greater than 100 µM.

For `NS(=O)(=O)c1ccc(/C=C/c2ccc(O)c(O)c2)cc1`, which TGI [1] is on record?
The TGI was 74.3 µM.

And the GI50 [2]?
Its GI50 is 22.3 µM.

And the TGI [2]?
The TGI was greater than 100 µM.

And the TGI [3]?
The TGI was greater than 100 µM.

And the TGI [4]?
The TGI was greater than 100 µM.

What about the GI50 [5] of the same molecule?
The GI50 was 12.7 µM.

And the TGI [5]?
The TGI was 51.3 µM.

What about the TGI [6] of the same molecule?
Its TGI is 29.6 µM.

What about the TGI [7] of the same molecule?
Its TGI is 65.7 µM.

And the GI50 [8]?
Its GI50 is 35.3 µM.

And the TGI [8]?
The TGI was greater than 100 µM.

And the GI50 [9]?
The GI50 was 4.49 µM.

And the TGI [9]?
The TGI was 40.1 µM.

And the TGI [10]?
Its TGI is greater than 100 µM.

And the GI50 [11]?
Its GI50 is 2.25 µM.

And the TGI [11]?
The TGI was 4.79 µM.

With `C=CCn1c(N)c(C#N)c(C#N)c1-c1ccccc1` as the molecule, how does the TGI [1] read?
Its TGI is greater than 100 µM.

What about the TGI [2] of the same molecule?
Its TGI is greater than 100 µM.

And the TGI [3]?
Its TGI is greater than 100 µM.

And the TGI [4]?
The TGI was greater than 100 µM.

What about the TGI [5] of the same molecule?
The TGI was greater than 100 µM.

What about the TGI [6] of the same molecule?
The TGI was greater than 100 µM.

And the TGI [7]?
The TGI was greater than 100 µM.

What about the TGI [8] of the same molecule?
Its TGI is greater than 100 µM.

What about the TGI [9] of the same molecule?
Its TGI is greater than 100 µM.

And the TGI [10]?
The TGI was greater than 100 µM.

And the TGI [11]?
Its TGI is greater than 100 µM.

Which TGI [1] does the source give for `Cc1ccc(S(=O)(=O)c2[nH]cc(/C(=C\C3CCCCC3)[N+](=O)[O-])c2C2CCCCC2)cc1` here?
Its TGI is greater than 20.6 µM.

And the TGI [2]?
Its TGI is 6.59 µM.

What about the TGI [3] of the same molecule?
The TGI was 0.407 µM.

What about the TGI [4] of the same molecule?
Its TGI is 1.62 µM.

And the TGI [5]?
The TGI was 0.891 µM.

And the TGI [6]?
Its TGI is 1.21 µM.

What about the TGI [7] of the same molecule?
Its TGI is 0.968 µM.

And the TGI [8]?
The TGI was 0.923 µM.

What about the TGI [9] of the same molecule?
The TGI was 1.13 µM.

And the TGI [10]?
The TGI was 3.71 µM.

And the TGI [11]?
Its TGI is 0.541 µM.

For `O=c1[nH]cnc2c1cnn2Cc1cn(CCCCO)nn1`, which TGI [1] is on record?
Its TGI is greater than 100 µM.

And the TGI [2]?
The TGI was greater than 100 µM.

And the TGI [3]?
The TGI was greater than 100 µM.

What about the TGI [4] of the same molecule?
The TGI was greater than 100 µM.

What about the TGI [5] of the same molecule?
The TGI was greater than 100 µM.

What about the TGI [6] of the same molecule?
The TGI was greater than 100 µM.

What about the TGI [7] of the same molecule?
The TGI was greater than 100 µM.

What about the TGI [8] of the same molecule?
The TGI was greater than 100 µM.

What about the TGI [9] of the same molecule?
Its TGI is greater than 100 µM.

What about the TGI [10] of the same molecule?
Its TGI is greater than 100 µM.

And the TGI [11]?
The TGI was greater than 100 µM.

For `O=c1[nH]nnc2c1sc1ncccc12`, which TGI [1] is on record?
Its TGI is greater than 100 µM.

And the TGI [2]?
Its TGI is greater than 100 µM.

What about the TGI [3] of the same molecule?
Its TGI is greater than 100 µM.

What about the TGI [4] of the same molecule?
The TGI was greater than 100 µM.

And the TGI [5]?
Its TGI is greater than 100 µM.

And the TGI [6]?
Its TGI is greater than 100 µM.

What about the TGI [7] of the same molecule?
The TGI was greater than 100 µM.

What about the TGI [8] of the same molecule?
The TGI was greater than 100 µM.

What about the TGI [9] of the same molecule?
The TGI was greater than 100 µM.

What about the TGI [10] of the same molecule?
The TGI was greater than 100 µM.

And the TGI [11]?
Its TGI is greater than 100 µM.

How did the TGI [1] turn out when `COC(=O)/C=C(\C(=O)OC)C1C(=O)Oc2c(C)c(=O)c3ccccc3n21` (configuration not stated) was run?
Its TGI is greater than 100 µM.

And the TGI [2]?
The TGI was greater than 100 µM.

What about the TGI [3] of the same molecule?
Its TGI is greater than 100 µM.

And the TGI [4]?
Its TGI is greater than 100 µM.

What about the TGI [5] of the same molecule?
The TGI was greater than 100 µM.

What about the TGI [6] of the same molecule?
The TGI was greater than 100 µM.

And the TGI [7]?
The TGI was greater than 100 µM.

And the TGI [8]?
Its TGI is greater than 100 µM.

What about the TGI [9] of the same molecule?
Its TGI is greater than 100 µM.

What about the TGI [10] of the same molecule?
Its TGI is greater than 100 µM.

And the TGI [11]?
The TGI was greater than 100 µM.
